Each structure is given as a SMILES string. Where two headings read alike, the source gives them in different places.

Data set [1] addresses T1, aromatase (human placental microsomes) (Homo sapiens, UniProt P11511).
T1 construct: protein (2 mg) from human placental microsomes; from tissue; host or cells: human placenta (microsomal fraction)
T1 sequence (P11511 1-503): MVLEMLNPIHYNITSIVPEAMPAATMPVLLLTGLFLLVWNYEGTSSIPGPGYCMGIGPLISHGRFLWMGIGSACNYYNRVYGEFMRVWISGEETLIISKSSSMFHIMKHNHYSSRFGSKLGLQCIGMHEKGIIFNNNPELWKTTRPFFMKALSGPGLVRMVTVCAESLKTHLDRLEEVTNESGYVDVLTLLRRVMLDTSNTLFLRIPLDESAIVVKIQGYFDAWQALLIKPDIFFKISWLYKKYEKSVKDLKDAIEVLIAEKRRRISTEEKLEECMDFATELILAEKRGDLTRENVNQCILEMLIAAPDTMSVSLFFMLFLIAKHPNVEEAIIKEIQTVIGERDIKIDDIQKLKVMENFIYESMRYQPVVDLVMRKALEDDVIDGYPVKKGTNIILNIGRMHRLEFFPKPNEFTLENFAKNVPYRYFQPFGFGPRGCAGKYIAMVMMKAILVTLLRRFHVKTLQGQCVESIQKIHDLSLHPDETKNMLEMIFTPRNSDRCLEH
The data set is described as follows: human placental aromatase assay. Format: biochemical.

In data set [2] the test system is human fibroblast (BJ) normal cell line. The data set is described as follows: cytotoxicity against BJ normal cell line.

`C[C@]12CCC(=O)C(O)=C1CC[C@@H]1[C@@H]2CC[C@]2(C)C(=O)CC[C@@H]12` [Compound 1, Formestane]: in data set [1], half-maximal inhibition (IC50) required 335 ± 11 nM.
In data set [1], `C[C@]12CC[C@H]3[C@@H]([C@H](O)C[C@@]4(O)[C@H](O)C(=O)CC[C@]34C)[C@@H]1CCC2=O` [Compound 2, 4α,5α,7α-Trihydroxyandrostane-3,17-dione] yielded an IC50 of 5230 ± 94 nM.
On to `C[C@]12CC[C@H](O)C(=O)C1C[C@H](O)[C@@H]1[C@@H]2CC[C@]2(C)C(=O)CC[C@@H]12` (stereo partly drawn) [Compound 3, 3β,7β-Dihydroxyandrostane-4,17-dione], for which the IC50 in data set [1] (human placental microsomes, 10 μM testosterone, estradiol by UPLC, read-out: IC50 aromatase inhibition) came out at 1370 ± 29 nM.
As for `C[C@]12CC[C@H]3[C@@H]([C@@H](O)C[C@@]4(O)C(=O)[C@@H](O)CC[C@]34C)[C@@H]1CCC2=O` [Compound 4, 3β,5α,7β-Trihydroxyandrostane-4,17-dione], the IC50 in data set [1] is 386 ± 72 nM.
`C[C@]12C=CC(=O)C(O)=C1CC[C@@H]1[C@@H]2[C@H](O)C[C@]2(C)C(=O)CC[C@@H]12` [Compound 5, 4,11α-Dihydroxyandrosta-1,4-diene-3,17-dione] displayed an IC50 in data set [1] of 34300 ± 532 nM. For the same compound, the “cytotoxicity to BJ normal cell line” value in data set [2] is given as “non-cytotoxic”.

(Values after patent US20210380630A1, “Bio-catalyzed Synthesis of New Aromatase Inhibitors through Structural Modifications of Anticancer Drug Formestane” (priority 2021, published 2021).)
